Assay results as given in patent US20240018140A1, “MODIFIED IMIDAZOPYRIDINES AS GLUCOSYLCERAMIDE SYNTHASE INHIBITORS” (Merck Sharp & Dohme LLC, priority 2020, published 2024).
pEC50: −log10 of the molar value.

Target: glucosylceramide synthase (GCS) (Homo sapiens (Human), UniProt Q16739)
Test: UDP-Glo glucosylceramide synthase biochemical assay
Conditions: endogenous GCS in Golgi preparations from human A375 malignant melanoma skin cells; C6 ceramide and UDP-glucose substrates; 20 h incubation; UDP detected by luminescence
Source text: UDP-Glo™ Glucosylceramide Synthase Biochemical Assay
A UDP-Glo™ glucosylceramide synthase biochemical assay was utilized to evaluate the effect of test compounds on the activity of endogenous levels of GCS enzyme contained within Golgi preparations isolated from human A375 malignant melanoma skin cells. The UDP-Glo™ glucosylceramide synthase assay uses UDP-Glucose as a nucleotide-glycosyl donor and ceramide as substrate acceptor molecules. In the reaction, glucosylceramide synthase (GCS) transfers glucose from UDP-Glucose to ceramide. Glucosylceramide and UDP are released as products.
Using Promega's UDP-Glo™ Glycosyltransferase assay kit (Promega Corporation, Madison, WI, USA (Promega)), GCS activity was indirectly measured by detecting the amount of UDP produced. An aliquot of GCS enzyme (1.5 μg crude golgi preparation, total protein) and titrated test compound were aliquoted to each well and incubated for 30 minutes at room temperature. […] An equivalent volume of substrate mixture was then added to each well. Following a 20 h incubation at room temperature to allow for GCS turnover of substrate, an equal volume of UDP detection reagent (Promega) was added to each well and incubated for an additional 75 minutes at room temperature to simultaneously convert the accumulated UDP product into ATP and generate light in a luciferase reaction. The generated light was detected using a luminometer. […] luminescence values (RLUs) were normalized to mean “min” and “max” effects, as determined on each plate. “Min” was defined as the mean of the values of the wells treated with vehicle (DMSO) and which represent 0% inhibition; “max” was defined as the mean of the values of the wells treated with a reference inhibitor and which represent the 100% effect. Values for % Emax and EC50 were determined by best-fitting the normalized data to a curve in Activity Base along a four-parameter logistic nonlinear regression (4PL) model (based on the Levenberg-Marquardt algorithm and defined by the equation below): […]
where: n is 4PMin (bottom of the curve); m is 4PMax (top of the curve); i is IP (inflection point of curve); and p is slope. See Levenberg, K., “A Method for the Solution of Certain Problems in Least Squares”, Quart. Appl. Math. 2, (1944), pp 164-168 and Marquardt, D., “An Algorithm for Least Squares Estimation on Nonlinear Parameters”, SIAM J. Appl. Math. 11, (1963) pp 431-441.

Chain of glucosylceramide synthase (GCS) (Q16739 whole entry): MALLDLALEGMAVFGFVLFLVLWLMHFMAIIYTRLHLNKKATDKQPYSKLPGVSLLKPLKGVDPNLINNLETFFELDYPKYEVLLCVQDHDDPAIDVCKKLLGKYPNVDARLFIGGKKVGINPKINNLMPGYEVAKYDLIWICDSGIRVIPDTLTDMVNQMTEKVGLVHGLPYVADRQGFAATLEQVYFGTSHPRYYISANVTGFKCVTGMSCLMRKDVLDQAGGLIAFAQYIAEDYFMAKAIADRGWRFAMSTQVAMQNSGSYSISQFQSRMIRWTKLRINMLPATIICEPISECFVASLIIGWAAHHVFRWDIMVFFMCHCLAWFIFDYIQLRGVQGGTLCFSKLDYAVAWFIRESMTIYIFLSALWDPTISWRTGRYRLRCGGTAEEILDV

Row | SMILES | pEC50
1 | CC(C)(C)NCc1cn2cccc(-c3ccccc3OCC(F)(F)F)c2n1 [Compound 79, 2-methyl-N-((8-(2-(2,2,2-trifluoroethoxy)phenyl)imidazo[1,2-a]pyridin-2-yl)methyl)propan-2-amine] | 6.85
2 | C[C@@H](NC(=O)c1cn2cccc(-c3ccccc3OCC(F)(F)F)c2n1)C(F)(F)F [Compound 4, (R)-8-(2-(2,2,2-trifluoroethoxy)phenyl)-N-(1,1,1-trifluoropropan-2-yl)imidazo[1,2-a]pyridine-2-carboxamide] | 7.59
3 | O=C(NCc1ccccn1)c1cn2cccc(-c3ccccc3OCC(F)(F)F)c2n1 [Compound 52, N-(pyridin-2-ylmethyl)-8-(2-(2,2,2-trifluoroethoxy)phenyl)imidazo[1,2-a]pyridine-2-carboxamide] | 7.89
4 | CC(C)(CO)NC(=O)c1cn2cccc(-c3ccccc3OCC(F)(F)F)c2n1 [Compound 1, N-(1-hydroxy-2-methylpropan-2-yl)-8-(2-(2,2,2-trifluoroethoxy)phenyl)imidazo[1,2-a]pyridine-2-carboxamide] | 8.01
5 | O=C(N[C@H]1CC[C@H](O)CC1)c1nc2c(-c3ccccc3OCC(F)(F)F)cccn2c1F [Compound 32, 3-fluoro-N-(trans-4-hydroxycyclohexyl)-8-(2-(2,2,2-trifluoroethoxy)phenyl)imidazo[1,2-a]pyridine-2-carboxamide] | 7.33
6 | O=C(c1cn2cc(Cl)cc(-c3ccccc3OCC(F)(F)F)c2n1)N1C[C@H]2C(CO)[C@@H]2C1 (stereo partly drawn) [Compound 60, (6-chloro-8-(2-(2,2,2-trifluoroethoxy)phenyl)imidazo[1,2-a]pyridin-2-yl)((1R,5R)-6-(hydroxymethyl)-3-azabicyclo[3.1.0]hexan-3-yl)methanone] | 7.52

The next molecules have a higher pEC50 than those just listed; values first:

Row | pEC50 | SMILES
7 | 8.64 | CC(CO)(NC(=O)c1cn2cccc(-c3ccccc3OCC(F)(F)F)c2n1)C(F)(F)F (single isomer, unassigned) [Compound 9, (R or S)-N-(1,1,1-trifluoro-3-hydroxy-2-methylpropan-2-yl)-8-(2-(2,2,2-trifluoroethoxy)phenyl)imidazo[1,2-a]pyridine-2-carboxamide]
8 | 9.35 | O=C(Nc1cnccc1F)c1cn2cccc(-c3ccccc3OCC(F)(F)F)c2n1 [Compound 57, N-(4-fluoropyridin-3-yl)-8-(2-(2,2,2-trifluoroethoxy)phenyl)imidazo[1,2-a]pyridine-2-carboxamide]
9 | 10.21 | CN1CC2(CN=C(c3cn4cc(Cl)cc(-c5ccccc5OCC(F)(F)F)c4n3)O2)C1 [Compound 70, 6-[6-chloro-8-[2-(2,2,2-trifluoroethoxy)phenyl]imidazo[1,2-a]pyridin-2-yl]-2-methyl-5-oxa-2,7-diazaspiro[3.4]oct-6-ene]
10 | 8.35 | CC(C)(C#N)CNC(=O)c1cn2cc(Cl)cc(-c3ccccc3OCC(F)(F)F)c2n1 [Compound 8, 6-chloro-N-(2-cyano-2-methylpropyl)-8-(2-(2,2,2-trifluoroethoxy)phenyl)imidazo[1,2-a]pyridine-2-carboxamide]
11 | 8.60 | O=C(N[C@H]1CCCOC1)c1cn2cc(C(F)(F)F)cc(-c3ccccc3OCC(F)(F)F)c2n1 [Compound 42, (S)-N-(tetrahydro-2H-pyran-3-yl)-8-(2-(2,2,2-trifluoroethoxy)phenyl)-6-(trifluoromethyl)imidazo[1,2-a]pyridine-2-carboxamide]
12 | 8.35 | CC(C)(CO)NC(=O)c1cn2cc(C(F)(F)F)cc(-c3ccccc3OCC(F)(F)F)c2n1 [Compound 37, N-(1-hydroxy-2-methylpropan-2-yl)-8-(2-(2,2,2-trifluoroethoxy)phenyl)-6-(trifluoromethyl)imidazo[1,2-a]pyridine-2-carboxamide]
13 | 8.43 | CC(C)(O)C1(C)CN=C(c2cn3cc(Cl)cc(-c4ccccc4OCC(F)(F)F)c3n2)O1 (stereo not shown) [Compound 77, 2-[2-[6-chloro-8-[2-(2,2,2-trifluoroethoxy)phenyl]imidazo[1,2-a]pyridin-2-yl]-5-methyl-4H-oxazol-5-yl]propan-2-ol]
